Experimental data: patent US20220213126A1, “SMALL MOLECULE AUTOPHAGY INDUCERS FOR THE TREATMENT OF CANCER AND NEURODEGENERATIVE DISEASES” (John Wayne Cancer Institute, priority 2019, published 2022)
Values after ≈ are worked out from the molar mass of the structure shown. Read-outs that look alike come from different tables or passages of the source.

Experiments:
[1] = system: proteins of MDA-MB-1 cells; assay: Thermal proteome profiling (TPP) for binding proteins
Procedure: To further elucidate targets that activate the above signaling mechanisms, thermal proteome profiling (TPP) was used to identify binding proteins (Franken et al., Nat. Protoc. 10:1567-1593, 2015; Miettinen et al., EMBO J. 37:e98359, 2018) (FIG. 5A). TPP enables an unbiased assessment of the proteins […] bound to VMY-BC-1 on a proteome-wide scale. Cell lysates were made from MDA-MB-1 cells treated with vehicle or 10 μM VMY-BC-1 for 24 hours. Lysates were heated at different temperatures for 3 minutes in a thermal cycler. Equal amounts of protein were digested, labeled with TMT 10-plex and analyzed by mass spectrometry. The fold-changes in protein abundances were computed relative to the lowest temperature in the temperature set. After a normalization, melting curves were fitted to the fold-changes of each individual protein. The thermal stability of proteins affected by VMY-BC-1 treatment was calculated using the differences between melting points from control for each protein. From the 5,634 proteins screened, 10 target proteins were identified that bound VMY-BC-1: LIMK1, ATM, CDLK5, ULK1, WNK1, PP2C, AK1, IKBKAP, Q53E18, and HDAC1 (FIG. 5B).

[2] = system: ULK1; assay: Western blot of autophagy proteins in MDA-MB-231 cells; type: cell-based; details: 10 μM, MDA-MB-231, different time points
Procedure: FIG. 6 is a Western blot of autophagy proteins in TNBC cells treated with vehicle (control), VMY-BC-1, or Rapamycin. Western blot is shown for p-ULK1, LC3 A/B, and cleaved PARP.
(§1) To identify the functional target of VMY-BC-1, preliminary cell viability assays were carried out using siRNA to knock down each of the 10 identified binding proteins. […] Considering that that low ULK1 expression is associated with TNBC disease progression (Tang et al., Breast Cancer Res. Treat. 134:549-560, 2012) and autophagy controls the level of various DNA repair and checkpoint proteins in the DNA damage response pathway (Czarny et al., Int. J. Mol. Sci. 16:2641-2662, 2015; Gomes et al., Int. J. Mol. Sci. 18:2351, 2017), ULK1 activity in response to VMY-BC-1 was investigated. Protein extracts were made from MDA-MB-231 cells treated with vehicle control, VMY-BC-1 (10 μM), and Rapamycin (200 nM) at different time points.

[3] = Metabolic stability in human liver microsomes; type: in vitro ADME; details: for microsomal CLint: human, human liver microsomes
[4] = Thermodynamic solubility; type: physicochemical; details: pH 7.4, aqueous buffer, thermodynamic from solid
Procedure: Moreover, PK studies of RSV in humans conclude that even high concentration of RSV might be insufficient to achieve in vivo concentrations required for the systemic prevention of cancer. Therefore, in vitro ADME assays were carried out to assess VMY-BC-1 and to identify properties for further optimization.

[5] = In vivo ADME/plasma pharmacokinetics in male CD1 mice
Procedure: FIG. 8 is a graph showing plasma pharmacokinetics of VMY-BC-1 in vivo. Concentrations are expressed as the mean±SEM.
In vivo ADME characteristics were determined in male CD1 mice following VMY-BC-1 administration at 1 mg/kg intravenously and 25 mg/kg and 100 mg/kg orally (FIG. 8). […] Sustained oral absorption following the 100 mg/kg oral administration indicated solubility was not limited oral absorption.

[6] = system: MDA-MB-231; assay: TMT quantitative proteomics with Ingenuity Pathway Analysis; type: cell-based; details: 10 μM
Procedure: A global quantitative proteomics approach using multiplexed tandem mass tagged (TMT) isotope labeling technology and shotgun mass spectrometry (Hung et al., Anal. Chem. 84:161-170, 2012) (FIG. 3) was used to quantitate approximately 5,400 proteins. MDA-MB-231 cells were treated with vehicle control (DMSO) or 10 μM VMY-BC-1 for 4 time points. Equal amounts of protein from cell lysates were trypsin digested (Step 1) and labelled with TMT 10-plex reagent (Step 2).

[7] = molecular target: T1, CYP2C19 (Homo sapiens, UniProt P33261); assay: CYP inhibition in pooled human liver microsomes; type: in vitro ADME
T1 construct: from tissue; host or cells: pooled human liver microsomes
T1 sequence (P33261 whole entry): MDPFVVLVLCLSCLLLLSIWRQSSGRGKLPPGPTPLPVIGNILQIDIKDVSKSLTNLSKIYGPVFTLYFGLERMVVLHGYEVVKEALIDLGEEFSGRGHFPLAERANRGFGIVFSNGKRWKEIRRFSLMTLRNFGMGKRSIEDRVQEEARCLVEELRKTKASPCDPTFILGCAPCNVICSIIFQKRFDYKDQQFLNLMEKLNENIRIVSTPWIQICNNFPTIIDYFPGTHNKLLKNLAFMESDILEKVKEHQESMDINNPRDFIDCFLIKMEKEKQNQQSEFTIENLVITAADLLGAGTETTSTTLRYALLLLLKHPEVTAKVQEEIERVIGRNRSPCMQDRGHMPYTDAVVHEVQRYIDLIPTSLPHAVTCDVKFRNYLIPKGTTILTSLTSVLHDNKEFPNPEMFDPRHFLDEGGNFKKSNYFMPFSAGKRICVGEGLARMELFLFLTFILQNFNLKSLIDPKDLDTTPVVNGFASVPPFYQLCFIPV

[8] = system: ATM and ULK1; assay: Cell viability assays with siRNA knock down of binding proteins; type: cell-based; details: preliminary
Procedure: as §1

[9] = system: MDA-MB-231 cells; assay: TNBC cell invasion, Transwells coated with Matrigel; type: cell-based; details: 10 μM, 24-72 hours
Procedure: FIGS. 2A and 2B are graphs showing the effect of VMY-BC-1 on TNBC cells. […] The percentage of cells crossing the chamber is presented as the mean±SEM. *P<0.05.
Effect of VMY-BC-1 on Triple Negative Breast Cancer Cell Lines A trans-stilbene boronic acid analog, VMY-BC-1, was tested against a TNBC cell line.

[10] = Brain pharmacokinetics in mice; type: in vivo
Procedure: Pharmacokinetics of VMY-BC-1 in the brain were assessed in mice administered 25 mg/kg VMY-BC-1 p.o. (Table 6).
Free drug fraction in brain and plasma compartment was determined in vitro (Table 7). Brain to plasma (B/P) ratio was also determined in vivo (Table 8).

[11] = 25 mg/kg single dose P.O., 0.00 h
[12] = 25 mg/kg single dose P.O., 12.00 h
[13] = 25 mg/kg single dose P.O., 24.00 h

COc1ccc(/C=C/c2cc(OC)cc(B(O)O)c2)cc1 [VMY-BC-1]
Target proteins identified that bound VMY-BC-1 ([1]; 10 μM, 24 hours, 5,634 proteins screened): 10
Fraction of bound protein ([1]; of 5,634 proteins screened): 0.0017 fraction
Autophagy proteins and phosphorylation of ULK1 and LC3 A/B (Western blot) [2]: increasing amounts of autophagy proteins over time as well as increased phosphorylation of ULK1 and LC3 A/B
Remaining at the end of incubation in human liver microsomes ([3]; 30 min incubation): 40%
microsomal CLint ([3]; Table 3, read-out: Metabolic stability in human liver microsome (CLint)): 41.3 µL/min/mg
microsomal CLint ([3]; read-out: Intrinsic clearance in human liver microsomes): 43 µL/min/mg
solubility thermodynamic [4]: 0.31 µM (≈ 0.0881 µg/mL)
Plasma clearance ([5]; 1 mg/kg intravenously): 50 % of hepatic blood flow
half-life ([5]; male, CD1, mouse, plasma, iv, 1 mg/kg intravenously, read-out: Elimination half-life (converted)): ~1 h
Vd ([5]; male, CD1, mouse, plasma, iv, 1 mg/kg intravenously, read-out: Volume of distribution): 2.4 L/kg
bioavailability ([5]; male, CD1, mouse, plasma, 25 mg/kg oral, read-out: Oral suspension bioavailability F (%)): > 100%
Cmax ([5]; male, CD1, mouse, plasma, oral, dose not given, read-out: Mean maximum concentration (Cmax)): 3.06 µg/mL
Tmax ([5]; male, CD1, mouse, plasma, oral, read-out: Time to maximum concentration (Tmax)): 1 to 2 h
Increase in Cmax ([5]; oral dose 25 to 100 mg/kg): approximately 5 fold
Increase in plasma exposures ([5]; oral dose 25 to 100 mg/kg): ~7 fold
Pathways altered (Ingenuity Pathway Analysis) [6]: activation of apoptosis, autophagy, and DNA damage pathways, and inhibition of mTOR1, PI3K, and AKT pathways
IC50 [7]: 95.7 µM
Effect of knock down of ATM and ULK1 on functional activity [8]: abrogated the functional activity
TNBC cell invasion [9]: significantly inhibited TNBC cell invasion in a time-dependent manner
Mean Brain Concentration [10, 11]: 0 ng/g
Mean Plasma Concentration [10, 11]: 0 µg/mL
Mean Brain Concentration ([10]; 25 mg/kg single dose P.O., 0.50 h, in ng/g): 40017.53
Mean Plasma Concentration ([10]; 25 mg/kg single dose P.O., 0.50 h, in ng/mL): 5273.66
Mean Brain Concentration ([10]; 25 mg/kg single dose P.O., 1.00 h, in ng/g): 28802.80
Mean Plasma Concentration ([10]; 25 mg/kg single dose P.O., 1.00 h, in ng/mL): 5486.04
Mean Brain Concentration ([10]; 25 mg/kg single dose P.O., 3.00 h, in ng/g): 6158.13
Mean Plasma Concentration ([10]; 25 mg/kg single dose P.O., 3.00 h, in ng/mL): 1945.44
Mean Brain Concentration ([10]; 25 mg/kg single dose P.O., 6.00 h, in ng/g): 1948.79
Mean Plasma Concentration ([10]; 25 mg/kg single dose P.O., 6.00 h, in ng/mL): 889.87
Mean Brain Concentration [10, 12]: 0 ng/g
Mean Plasma Concentration [10, 12]: 0 µg/mL
Mean Brain Concentration [10, 13]: 0 ng/g
Mean Plasma Concentration [10, 13]: 0 µg/mL
AUCextrap ([10]; Brain, oral 25 mg/kg): 4.74%
AUCinf ([10]; Brain, oral 25 mg/kg): 78032.82 ng·h/g
AUClast ([10]; Brain, oral 25 mg/kg): 74330.76 ng·h/g
AUCextrap ([10]; Plasma, oral 25 mg/kg): 13.75%
Kp at 0 h ([10]; mouse, brain and plasma, oral, 25 mg/kg single dose P.O., 0.00 h, read-out: Brain to Plasma Ratio): 0
Kp at 12 h ([10]; mouse, brain and plasma, oral, 25 mg/kg single dose P.O., 12.00 h, read-out: Brain to Plasma Ratio): 0
Kp at 24 h ([10]; mouse, brain and plasma, oral, 25 mg/kg single dose P.O., 24.00 h, read-out: Brain to Plasma Ratio): 0
Kp ([10]; mouse, brain and plasma, po, 25 mg/kg p.o., read-out: Cmax relative to plasma): 7
Kp at 0.5 h ([10]; mouse, brain and plasma, po, 25 mg/kg single dose P.O., 0.50 h, read-out: Brain to Plasma Ratio): 7.59
Kp at 1 h ([10]; mouse, brain and plasma, po, 25 mg/kg single dose P.O., 1.00 h, read-out: Brain to Plasma Ratio): 5.25
Kp at 3 h ([10]; mouse, brain and plasma, po, 25 mg/kg single dose P.O., 3.00 h, read-out: Brain to Plasma Ratio): 3.17
Kp at 6 h ([10]; mouse, brain and plasma, po, 25 mg/kg single dose P.O., 6.00 h, read-out: Brain to Plasma Ratio): 2.19
Cmax ([10]; mouse, Brain, oral 25 mg/kg): 40000 ng/g
MRT last ([10]; mouse, Brain, oral 25 mg/kg): 1.48 h
Tmax ([10]; mouse, Brain, oral 25 mg/kg): 0.5 h
half-life ([10]; mouse, Brain, oral 25 mg/kg): 1.32 h
AUC(0-inf) ([10]; mouse, Plasma, oral 25 mg/kg): 18.2 µg·h/mL
AUC(0-t) ([10]; mouse, Plasma, oral 25 mg/kg): 15.7 µg·h/mL
Cmax ([10]; mouse, Plasma, oral 25 mg/kg): 5.49 µg/mL
MRT last ([10]; mouse, Plasma, oral 25 mg/kg): 1.96 h
Tmax ([10]; mouse, Plasma, oral 25 mg/kg): 1 h
half-life ([10]; mouse, Plasma, oral 25 mg/kg): 1.95 h
